Measurements reported in patent publication US9884874B2, “Bromodomain-inhibiting compounds and pharmaceutical composition comprising same for preventing or treating a cancer” (KAINOS MEDICINE, INC., priority 2014, dated 2018).

Experiments:
[1] = tested on: LnCAP (human prostatic adenocarcinoma cell line); assay: Anti-proliferative activity test (CellTiter-Glo), LnCAP; format: cell-based; details: first value of LnCAP/MV4-11 cell, read-out: Cell proliferation IC50 (LnCAP)
Procedure: IC50 (uM) of the compounds obtained in Examples 1 to 18 against hematological cancer cells and solid tumors was measured for identifying anti-proliferative activities.
A human prostatic adenocarcinoma cell line, LnCAP (ATCC®, CRL-1740) and human leukemia cell line MV4-11 (ATCC®, CRL-9591) were used to test the degrees of the compounds 1 to 18 in inhibiting the cancer cell growth. The testing cell concentration was adjusted to 6.7×10^3 cells/ml with a culture medium supplemented with 10% FBS, in the temperature of 37° C., 5% CO2 and 95% humidity. Culture media and FBS were purchased from GIBCO. 90 μL of cell suspensions thus obtained was added to two 96-well plates with the final cell density of 600 cells/well, followed by addition of 10 μL of culture medium to each well of plate. The plates were incubated overnight in a humidified incubator at 37° C. with 5% CO2.
Compounds 1 to 18 were each dissolved with dimethylsulfoxide (DMSO) or phosphate buffer solution (PBS) as a stock solution, and 200× solutions of test compound (2 mM) using DMSO were prepared. Then, the DMSO solution thus obtained was diluted 20-fold with culture medium or PBS to obtain 10× working solution. 10 μL of 10× working solution (drug solution) was dispensed to each well (triplicate for each concentration). The final concentration of DMSO in culture medium was 0.5% [v/v].
Cell viability was determined using CellTiter-Glo® (CTG) assay. 100 μL of CellTiter-Glo® was added to the equal volume of the cultured cells to read luminescence in EnVision Multi Label Reader.

[2] = Mouse liver microsomal stability/clearance; format: in vitro ADME; details: mouse liver microsomes; second value of Human/Mouse cell; read-out: Liver microsomal clearance (Mouse)
Procedure: Human and mouse liver microsomal clearance assays were carried out in CROWN Biosciences (Taicang, China). The human liver microsomes (Cat No. X008067, Lot No. KQB) and mouse liver microsomes (Cat No. M1000, Lot No. 1210302) were purchased from Celsis and Xenotech, respectively.
5 μL of test compound stock solution was diluted with 495 μL of 1:1 Methanol/Water (final concentration: 100 μM, 50% MeOH) and combined with 534 μL of the respective liver microsome solution (final concentration: 1.111 μM, 0.555% MeOH). The final concentration of the liver microsome solution was 0.7 mg protein/mL.
Incubations of the liver microsome solutions were performed in a 96 well plate at 37° C. 90 μL of the liver microsome solutions were added to Blank, and 90 μL of working solution of the test compound was added to all plates except the Blank.
All plates thus obtained were warmed in water bath at 37° C. for 10 min, and 10 μL of NADPH co-factor solution comprising 42 mg of β-nicotinamide adenine dinucleotide phosphate (Sigma Cat. No. N0505 Lot 020M7009V), 84 mg of isocitric acid (Sigma Cat. No. 11252 Lot 119K1099) and 0.478 mL of isocitric dehydrogenase (Sigma Cat. No. 12002 Lot 086K7055, 15 units/mg protein, warmed in water bath at 37° C. for 5 min was added to the plates. The resulting plates were incubated at 37° C. in the following order: T60 (The test compounds were incubated with the liver microsomal solution and NADPH for 60 min at 37° C.), T30 (such as for 30 min.), and T10 (such as for 10 min.). 300 μL of a cold (4° C.) stop solution (acetonitrile (ACN) including 500 nM of tolbutamide as internal standard) and 10 μL of NADPH co-factor solution to starting plate (T0: 100% of the parent compound without any reaction) were added to the plates. The reaction was stopped by adding 300 μL of the cold (4° C.) stop solution to the other plates in the following order: T10 first, then T30 and T60.
The samples were centrifuged at 4,000 rpm for 20 min and transferred to Bioanalytical Services for liquid chromatography-mass spectrometry (LC-MS)/MS (Waters UPLC/API 4000, 10 μL injection) analysis.

[3] = tested on: RS4;11 (acute lymphoblastic leukemia); assay: Anti-proliferative activity, RS4;11; format: cell-based; details: Homo sapiens, read-out: Cell proliferation, IC50
[4] = tested on: MDA-MB-435 (breast); assay: Anti-proliferative activity, MDA-MB-435; format: cell-based; details: Homo sapiens, read-out: Cell proliferation, IC50
[5] = Pharmacokinetics in Sprague Dawley rats; format: in vivo, Sprague Dawley (SD) rats; details: plasma, rat
Procedure: For serum compound analysis, blood samples were collected by cardiac puncture over 24 hr time course. 20 μL of spiked plasma was added into a 96-well plate, adding ten volumes of internal standard (IS) in acetonitrile (ACN) to the obtained precipitated protein mixed thoroughly, centrifuged at 4,000 rpm for 10 min. 150 μL of supernatant thus obtained was transferred to another pre-labeled 96-well plate, mixed with 150 μL of water. 5 μL or 10 μL of the mixture was injected into the LC-MS system under the following conditions:
Column: API-4000+Waters UPLC (TCLM08);
Lower limit of quantification (LLOQ) was at 1 ng/mL. Pharmacokinetic parameters of half-life (T1/2), clearance (CL), maximum plasma concentration (Cmax), mean residence time (MRT) and bioavailability (F %), plasma exposure (AUC) of the compound were calculated using Phoenix WinNonlin 6.3 (non-compartmental model).
Also, pharmacokinetics of compound 1 was evaluated in Sprague Dawley (SD) rats following IV administration at 3 mg/kg or 10 mg/kg dose level, and PO administration at 3 mg/kg or 10 mg/kg dose level, respectively.

SMILES: COc1ccc2c(c1)C(c1ccc(Cl)cc1)=N[C@@H](COS(C)(=O)=O)c1nnc(C)n1-2 [Compound 1, (R)-(6-(4-chlorophenyl)-8-methoxy-1-methyl-4H-benzo[f]-[1,2,4]triazolo[4,3-a][1,4]diazepin-4-yl)methyl methanesulfonate]
- IC50 [1]: 0.47 µM
- microsomal CLint at 1 µM [2]: 4.7 µL/min/mg
- IC50 [3]: 3.14 µM
- IC50 [4]: 5.99 µM
- AUC ([5]; IV, 3 mg/kg): 2 µM·h
- clearance ([5]; IV, 3 mg/kg): 54.8 mL/min/kg
- AUC ([5]; IV, 10 mg/kg): 15.4 µM·h
- MRT ([5]; IV, 10 mg/kg): 1.86 h
- clearance ([5]; IV, 10 mg/kg): 24.9 mL/min/kg
- AUC ([5]; PO, 3 mg/kg): 1 µM·h
- bioavailability ([5]; PO, 3 mg/kg): 50.6%
- AUC ([5]; PO, 10 mg/kg): 13.6 µM·h
- bioavailability ([5]; PO, 10 mg/kg): 88.6%
